Assay results reported in patent US20260166128A1, “HUMAN AMYLIN ANALOG, AND DERIVATIVE THEREOF AND USE THEREOF” (priority 2022, published 2026).
Numbered stars: 1 amine (or outer) side, 2 acyl side, 3 side chain; on linkers, the order of the positions; unused ones are H or OH. Bridge positions count the residues as written; N and C are the ends. Square brackets hold non-standard residues; d marks the D form. Peptide text beside a SMILES is read from it. * marks the point of attachment. C20 diacid = O=C(O)CCCCCCCCCCCCCCCCCCC(=O)*; γGlu = O=C(O)[C@H](CCC(=O)[*:2])N[*:1]; Hyp = O=C(O)[C@@H]1C[C@@H](O)CN1; X3 = O=C(C1CCC(CN[*:1])CC1)[*:2]; Cit = NC(=O)NCCC[C@H](N)C(=O)O; Orn = NCCC[C@H](N)C(=O)O; AEEA = NCCOCCOCC(=O)O; Aoc = NCCCCCCCC(=O)O; Inp = O=C(O)C1CCNCC1; Sar = CNCC(=O)O

Target: T1, human amylin receptor (Homo sapiens, UniProt O60896+P30988)
T1 construct: host or cells: CHO-K1/Ga15/AMY3 cells, further stably transfected with a CRE-luciferase plasmid
T1 sequence (P30988 25-474): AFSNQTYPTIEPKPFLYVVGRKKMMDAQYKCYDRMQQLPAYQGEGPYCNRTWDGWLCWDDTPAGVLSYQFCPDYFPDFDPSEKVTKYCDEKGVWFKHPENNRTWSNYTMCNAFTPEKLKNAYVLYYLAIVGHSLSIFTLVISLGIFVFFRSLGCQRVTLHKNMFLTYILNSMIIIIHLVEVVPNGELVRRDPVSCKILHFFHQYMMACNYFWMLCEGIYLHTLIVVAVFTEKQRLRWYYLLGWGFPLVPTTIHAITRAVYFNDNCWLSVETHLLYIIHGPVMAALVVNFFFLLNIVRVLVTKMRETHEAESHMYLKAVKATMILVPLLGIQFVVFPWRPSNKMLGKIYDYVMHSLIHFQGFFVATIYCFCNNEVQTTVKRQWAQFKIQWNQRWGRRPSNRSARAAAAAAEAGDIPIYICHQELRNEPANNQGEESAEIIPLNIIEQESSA
T1 sequence (O60896 24-148 partner): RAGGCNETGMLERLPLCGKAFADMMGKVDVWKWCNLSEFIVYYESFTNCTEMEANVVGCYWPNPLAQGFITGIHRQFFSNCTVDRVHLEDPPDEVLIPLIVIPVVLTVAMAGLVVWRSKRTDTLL
Experiment: Luciferase assay of amylin derivatives in amylin receptor/CRE-luc CHO cell line
Format: cell-based
Details: CHO-K1/Ga15/AMY3 CRE-luc cells, 24 hours incubation, F12 medium containing 10% FBS; read-out: EC50
Description: The experiment was intended to detect the activity or efficacy of the amylin derivatives on a human amylin receptor in vitro by luciferase assay.
50 μL of growth medium (F12 medium containing 10% FBS) was added into each well of a white 96-well plate, and the stably transfected amylin/CRE-lue CHO cells were inoculated into the white 96-well plate at a density of about 20,000 cells/well for activity determination.

| EC50 [nM] | SMILES |
| --- | --- |
| 0.041 | CC[C@H](C)[C@H](NC(=O)[C@@H]1CCCN1C(=O)[C@H](CCCN)NC(=O)[C@H](CC(C)C)NC(=O)[C@H](CC(N)=O)NC(=O)[C@H](CC(N)=O)NC(=O)[C@H](CO)NC(=O)[C@H](CO)NC(=O)[C@H](Cc1c[nH]cn1)NC(=O)[C@H](CCCNC(=N)N)NC(=O)[C@H](CC(C)C)NC(=O)[C@H](Cc1ccccc1)NC(=O)[C@H](CC(=O)O)NC(=O)[C@H](C)NC(=O)[C@H](CC(C)C)NC(=O)[C@H](CCCNC(=N)N)NC(=O)[C@H](CCC(N)=O)NC(=O)[C@@H](NC(=O)[C@H](C)NC(=O)[C@@H]1CSSC[C@H](NC(=O)[C@H](CCCCN)NC(=O)CC[C@H](NC(=O)CCCCCCCCCCCCCCCCCCC(=O)O)C(=O)O)C(=O)N[C@@H](CC(N)=O)C(=O)N[C@@H]([C@@H](C)O)C(=O)N[C@@H](C)C(=O)N[C@@H]([C@@H](C)O)C(=O)N1)[C@@H](C)O)C(=O)N[C@@H](CC(C)C)C(=O)N1CCC[C@H]1C(=O)N1CCC[C@H]1C(=O)N[C@H](C(=O)N[C@@H](CC(N)=O)C(=O)N[C@H](C(=O)NCC(=O)N[C@@H](CO)C(=O)N[C@@H](CC(N)=O)C(=O)N[C@H](C(=O)N1CCC[C@H]1C(N)=O)[C@@H](C)O)C(C)C)[C@@H](C)O [PD170] ({C20 diacid-γGlu}-KCNTATCATQRLADFLRHSSNNL[Orn]PILPPTNVGSNTP-NH2; disulfide 2-7 (inferred)) |
| 0.053 | CC[C@H](C)[C@H](NC(=O)[C@@H]1CCCN1C(=O)[C@H](CCCNC(N)=O)NC(=O)[C@H](CC(C)C)NC(=O)[C@H](CC(N)=O)NC(=O)[C@H](CC(N)=O)NC(=O)[C@H](CO)NC(=O)[C@H](CO)NC(=O)[C@H](Cc1c[nH]cn1)NC(=O)[C@H](CCCNC(=N)N)NC(=O)[C@H](CC(C)C)NC(=O)[C@H](Cc1ccccc1)NC(=O)[C@H](CC(=O)O)NC(=O)[C@H](C)NC(=O)[C@H](CC(C)C)NC(=O)[C@H](CCCNC(=N)N)NC(=O)[C@H](CCC(N)=O)NC(=O)[C@@H](NC(=O)[C@H](C)NC(=O)[C@@H]1CSSC[C@H](NC(=O)[C@H](CCCCN)NC(=O)CC[C@H](NC(=O)CCCCCCCCCCCCCCCCCCC(=O)O)C(=O)O)C(=O)N[C@@H](CC(N)=O)C(=O)N[C@@H]([C@@H](C)O)C(=O)N[C@@H](C)C(=O)N[C@@H]([C@@H](C)O)C(=O)N1)[C@@H](C)O)C(=O)N[C@@H](CC(C)C)C(=O)N1CCC[C@H]1C(=O)N1CCC[C@H]1C(=O)N[C@H](C(=O)N[C@@H](CC(N)=O)C(=O)N[C@H](C(=O)NCC(=O)N[C@@H](CO)C(=O)N[C@@H](CC(N)=O)C(=O)N[C@H](C(=O)N1CCC[C@H]1C(N)=O)[C@@H](C)O)C(C)C)[C@@H](C)O [PD171] ({C20 diacid-γGlu}-KCNTATCATQRLADFLRHSSNNL[Cit]PILPPTNVGSNTP-NH2; disulfide 2-7 (inferred)) |
| 0.075 | CC[C@H](C)[C@H](NC(=O)[C@@H]1CCCN1C(=O)CN(C)C(=O)[C@H](CC(C)C)NC(=O)[C@H](CC(N)=O)NC(=O)[C@H](CC(N)=O)NC(=O)[C@H](CO)NC(=O)[C@H](CO)NC(=O)[C@H](Cc1c[nH]cn1)NC(=O)[C@H](CCCNC(=N)N)NC(=O)[C@H](CC(C)C)NC(=O)[C@H](Cc1ccccc1)NC(=O)[C@H](CC(=O)O)NC(=O)[C@H](C)NC(=O)[C@H](CC(C)C)NC(=O)[C@H](CCCNC(=N)N)NC(=O)[C@H](CCC(N)=O)NC(=O)[C@@H](NC(=O)[C@H](C)NC(=O)[C@@H]1CSSC[C@H](NC(=O)[C@H](CCCCN)NC(=O)CC[C@H](NC(=O)CCCCCCCCCCCCCCCCCCC(=O)O)C(=O)O)C(=O)N[C@@H](CC(N)=O)C(=O)N[C@@H]([C@@H](C)O)C(=O)N[C@@H](C)C(=O)N[C@@H]([C@@H](C)O)C(=O)N1)[C@@H](C)O)C(=O)N[C@@H](CC(C)C)C(=O)N1CCC[C@H]1C(=O)N1CCC[C@H]1C(=O)N[C@H](C(=O)N[C@@H](CC(N)=O)C(=O)N[C@H](C(=O)NCC(=O)N[C@@H](CO)C(=O)N[C@@H](CC(N)=O)C(=O)N[C@H](C(=O)N1CCC[C@H]1C(N)=O)[C@@H](C)O)C(C)C)[C@@H](C)O [PD172] ({C20 diacid-γGlu}-KCNTATCATQRLADFLRHSSNNL[Sar]PILPPTNVGSNTP-NH2; disulfide 2-7 (inferred)) |
| 0.064 | CC[C@H](C)[C@H](NC(=O)[C@@H]1CCCN1C(=O)C1CCC(CNC(=O)[C@H](CC(C)C)NC(=O)[C@H](CC(N)=O)NC(=O)[C@H](CC(N)=O)NC(=O)[C@H](CO)NC(=O)[C@H](CO)NC(=O)[C@H](Cc2c[nH]cn2)NC(=O)[C@H](CCCNC(=N)N)NC(=O)[C@H](CC(C)C)NC(=O)[C@H](Cc2ccccc2)NC(=O)[C@H](CC(=O)O)NC(=O)[C@H](C)NC(=O)[C@H](CC(C)C)NC(=O)[C@H](CCCNC(=N)N)NC(=O)[C@H](CCC(N)=O)NC(=O)[C@@H](NC(=O)[C@H](C)NC(=O)[C@@H]2CSSC[C@H](NC(=O)[C@H](CCCCN)NC(=O)CC[C@H](NC(=O)CCCCCCCCCCCCCCCCCCC(=O)O)C(=O)O)C(=O)N[C@@H](CC(N)=O)C(=O)N[C@@H]([C@@H](C)O)C(=O)N[C@@H](C)C(=O)N[C@@H]([C@@H](C)O)C(=O)N2)[C@@H](C)O)CC1)C(=O)N[C@@H](CC(C)C)C(=O)N1CCC[C@H]1C(=O)N1CCC[C@H]1C(=O)N[C@H](C(=O)N[C@@H](CC(N)=O)C(=O)N[C@H](C(=O)NCC(=O)N[C@@H](CO)C(=O)N[C@@H](CC(N)=O)C(=O)N[C@H](C(=O)N1CCC[C@H]1C(N)=O)[C@@H](C)O)C(C)C)[C@@H](C)O (stereo partly shown) [PD173] ({C20 diacid-γGlu}-KCNTATCATQRLADFLRHSSNNL[X3]PILPPTNVGSNTP-NH2; disulfide 2-7) |
| 0.046 | CC[C@H](C)[C@H](NC(=O)[C@@H]1CCCN1C(=O)CCCCCCCNC(=O)[C@H](CC(C)C)NC(=O)[C@H](CC(N)=O)NC(=O)[C@H](CC(N)=O)NC(=O)[C@H](CO)NC(=O)[C@H](CO)NC(=O)[C@H](Cc1c[nH]cn1)NC(=O)[C@H](CCCNC(=N)N)NC(=O)[C@H](CC(C)C)NC(=O)[C@H](Cc1ccccc1)NC(=O)[C@H](CC(=O)O)NC(=O)[C@H](C)NC(=O)[C@H](CC(C)C)NC(=O)[C@H](CCCNC(=N)N)NC(=O)[C@H](CCC(N)=O)NC(=O)[C@@H](NC(=O)[C@H](C)NC(=O)[C@@H]1CSSC[C@H](NC(=O)[C@H](CCCCN)NC(=O)CC[C@H](NC(=O)CCCCCCCCCCCCCCCCCCC(=O)O)C(=O)O)C(=O)N[C@@H](CC(N)=O)C(=O)N[C@@H]([C@@H](C)O)C(=O)N[C@@H](C)C(=O)N[C@@H]([C@@H](C)O)C(=O)N1)[C@@H](C)O)C(=O)N[C@@H](CC(C)C)C(=O)N1CCC[C@H]1C(=O)N1CCC[C@H]1C(=O)N[C@H](C(=O)N[C@@H](CC(N)=O)C(=O)N[C@H](C(=O)NCC(=O)N[C@@H](CO)C(=O)N[C@@H](CC(N)=O)C(=O)N[C@H](C(=O)N1CCC[C@H]1C(N)=O)[C@@H](C)O)C(C)C)[C@@H](C)O [PD174] ({C20 diacid-γGlu}-KCNTATCATQRLADFLRHSSNNL[Aoc]PILPPTNVGSNTP-NH2; disulfide 2-7) |
| 0.029 | CC[C@H](C)[C@H](NC(=O)[C@@H]1CCCN1C(=O)[C@H](CCCCN)NC(=O)[C@H](CC(C)C)NC(=O)[C@H](CC(N)=O)NC(=O)[C@H](CC(N)=O)NC(=O)[C@H](CO)NC(=O)[C@H](CO)NC(=O)[C@H](Cc1c[nH]cn1)NC(=O)[C@H](CCCNC(=N)N)NC(=O)[C@H](CC(C)C)NC(=O)[C@H](Cc1ccccc1)NC(=O)[C@H](CC(=O)O)NC(=O)[C@H](C)NC(=O)[C@H](CC(C)C)NC(=O)[C@H](CCCNC(=N)N)NC(=O)[C@H](CCC(N)=O)NC(=O)[C@@H](NC(=O)[C@H](C)NC(=O)[C@@H]1CSSC[C@H](NC(=O)[C@H](CCCCN)NC(=O)CC[C@H](NC(=O)COCCOCCNC(=O)COCCOCCNC(=O)CCCCCCCCCCCCCCCCCCC(=O)O)C(=O)O)C(=O)N[C@@H](CC(N)=O)C(=O)N[C@@H]([C@@H](C)O)C(=O)N[C@@H](C)C(=O)N[C@@H]([C@@H](C)O)C(=O)N1)[C@@H](C)O)C(=O)N[C@@H](CC(C)C)C(=O)N1CCC[C@H]1C(=O)N1CCC[C@H]1C(=O)N[C@H](C(=O)N[C@@H](CC(N)=O)C(=O)N[C@H](C(=O)NCC(=O)N[C@@H](CO)C(=O)N[C@@H](CC(N)=O)C(=O)N[C@H](C(=O)N1C[C@H](O)C[C@H]1C(N)=O)[C@@H](C)O)C(C)C)[C@@H](C)O [PD176] ({C20 diacid-AEEA-AEEA-γGlu}-KCNTATCATQRLADFLRHSSNNLKPILPPTNVGSNT[Hyp]-NH2; disulfide 2-7) |
| 0.017 | CC[C@H](C)[C@H](NC(=O)[C@@H]1CCCN1C(=O)[C@H](CCCCN)NC(=O)[C@H](CC(C)C)NC(=O)[C@H](CC(N)=O)NC(=O)[C@H](CC(N)=O)NC(=O)[C@H](CO)NC(=O)[C@H](CO)NC(=O)[C@H](Cc1c[nH]cn1)NC(=O)[C@H](CCCNC(=N)N)NC(=O)[C@H](CC(C)C)NC(=O)[C@H](Cc1ccccc1)NC(=O)[C@H](CC(=O)O)NC(=O)[C@H](C)NC(=O)[C@H](CC(C)C)NC(=O)[C@H](CCCNC(=N)N)NC(=O)[C@H](CCC(N)=O)NC(=O)[C@@H](NC(=O)[C@H](C)NC(=O)[C@@H]1CSSC[C@H](NC(=O)[C@H](CCCCN)NC(=O)COCCOCCNC(=O)COCCOCCNC(=O)C2CCN(C(=O)CCCCCCCCCCCCCCCCCCC(=O)O)CC2)C(=O)N[C@@H](CC(N)=O)C(=O)N[C@@H]([C@@H](C)O)C(=O)N[C@@H](C)C(=O)N[C@@H]([C@@H](C)O)C(=O)N1)[C@@H](C)O)C(=O)N[C@@H](CC(C)C)C(=O)N1CCC[C@H]1C(=O)N1CCC[C@H]1C(=O)N[C@H](C(=O)N[C@@H](CC(N)=O)C(=O)N[C@H](C(=O)NCC(=O)N[C@@H](CO)C(=O)N[C@@H](CC(N)=O)C(=O)N[C@H](C(=O)N1C[C@H](O)C[C@H]1C(N)=O)[C@@H](C)O)C(C)C)[C@@H](C)O [PD179] ({C20 diacid-Inp-AEEA-AEEA}-KCNTATCATQRLADFLRHSSNNLKPILPPTNVGSNT[Hyp]-NH2; disulfide 2-7) |
